One series deals with T1, MMP2 (Homo sapiens, UniProt P08253).
T1 construct: purchased Sigma-Aldrich
T1 sequence (P08253 110-660): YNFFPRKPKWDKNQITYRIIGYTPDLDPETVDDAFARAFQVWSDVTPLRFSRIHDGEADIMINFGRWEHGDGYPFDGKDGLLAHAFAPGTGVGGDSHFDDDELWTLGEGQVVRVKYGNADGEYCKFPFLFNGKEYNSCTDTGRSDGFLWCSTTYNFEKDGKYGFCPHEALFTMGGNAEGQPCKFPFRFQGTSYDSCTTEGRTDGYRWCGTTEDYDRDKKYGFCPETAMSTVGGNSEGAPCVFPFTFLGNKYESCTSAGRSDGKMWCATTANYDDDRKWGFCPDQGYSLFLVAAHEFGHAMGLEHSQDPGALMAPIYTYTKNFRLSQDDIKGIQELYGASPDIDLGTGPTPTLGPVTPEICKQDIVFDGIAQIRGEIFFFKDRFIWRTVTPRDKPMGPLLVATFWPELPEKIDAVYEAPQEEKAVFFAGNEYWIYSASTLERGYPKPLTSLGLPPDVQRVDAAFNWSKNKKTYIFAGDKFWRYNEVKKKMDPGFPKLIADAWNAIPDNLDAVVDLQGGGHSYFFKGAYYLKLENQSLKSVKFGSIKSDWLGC
The series can be described thus: MMPs inhibition assay (FRET substrate), MMP2. The class given is biochemical. The method, then:
The inhibitory activity of the peptides was determined by measuring the MMPs' protease activity towards a FRET substrate. 0.8 nM MMP2 or MMP9 (Sigma-Aldrich), 10 μM substrate (FAM-Lys-Pro-Leu-Gly-Leu-Lys(Dabcyl)-Ala-Arg-NH2, λex 490 nm; λem 520 nm) and various concentrations of the peptides (0.0001 μM-10 μM or 0.001 μM-100 μM) were used. The reactions were performed in 50 mM Tris-HCl buffer (pH 7.5) containing 150 mM NaCl, 10 mM CaCl2, 0.05% Brij35, at 37° C. MMP2 was pre-incubated with the peptide inhibitors for 10 min before adding the substrate. All the numbers were input into GraphPad Prism (GraphPad Software, San Diego) for IC50 calculation.

The nature of series [1]: Stability in human serum by HPLC analysis. As to conditions: 37° C. The class given is in vitro ADME. Here is the method: Peptides were mixed with human serum to a final concentration of 100 μM and incubated at 37° C. Aliquots of the sample were taken out at different time points and 10% TFA was added to quench all protease activities, followed by addition of 10% of DMSO. The solution mixture was centrifuged (11,000 g, 5 min, 4° C.) and the supernatant was analysed by RP-HPLC (15% buffer B-65% buffer B in 25 min) and ESI-MS. The quantity of the remaining peptides was determined by comparing their HPLC peak area with the initial peak area.

The subject of series [2] is butelase-1. The series can be described thus: Kinetics of peptide cyclization by butelase-1. The class given is biochemical, Clitoria ternatea. As to conditions: for Kcat / Km: cyclization by butelase-1, 37° C., PBS pH 6.5. The method, then: (§1) Enzyme-meditated cyclization and ligation reactions were performed in 20 mM PBS buffer (pH 6.5) at 37° C. with 0.5 mM TCEP. The reaction was quenched by adding 20% TFA. The enzyme concentration was determined by the absorbance at 280 nm using Nanodrop. The reactions were monitored by reverse-phase analytical HPLC, and the products were characterized by MALDI-MS or ESI-MS.
(§2) Model peptides (1-6, see Table 51) were used in the kinetic studies. The cyclization reaction was performed in 20 mM PBS buffer (pH 6.5) containing 0.5 mM TCEP, at 37° C. The reaction was monitored by analytical RP-HPLC (5% buffer B-45% buffer B in 20 min). Kinetic constants for these peptides were obtained from the initial reaction rates. To ensure that the measurement of reaction rate was in the range of the initial velocity, the reaction was quenched using 20% TFA, when less than 25% of the substrate has been converted. Each recorded value is an average of measurements in triplicate. All the numbers were input into GraphPad Prism (GraphPad Software, San Diego) to obtain the Michaelis-Menten curve and calculate the kinetic parameters (kcat and Km).
Plant flowers of Clitoria ternatea grown in the Nanyang Technological University Herb Garden were collected. Butelase-1 was extracted using a chromatography method described previously.^5 Purified butelase-1 was obtained and stored at 4° C. or −80° C. in 50 mM sodium phosphate buffer (pH 6.0) containing 1 mM EDTA, 5 mM β-mercaptoethanol, 0.01% Tween 20 and 20% sucrose.

The test system of a further series is VyPAL2. Nature of the series: Kinetics of peptide cyclization by VyPAL2. It counts as biochemical. As to conditions: for Kcat / Km: cyclization by VyPAL2, 37° C., PBS pH 6.5. The method, then: as §1, §2
VyPAL2, sequence (as listed by the source): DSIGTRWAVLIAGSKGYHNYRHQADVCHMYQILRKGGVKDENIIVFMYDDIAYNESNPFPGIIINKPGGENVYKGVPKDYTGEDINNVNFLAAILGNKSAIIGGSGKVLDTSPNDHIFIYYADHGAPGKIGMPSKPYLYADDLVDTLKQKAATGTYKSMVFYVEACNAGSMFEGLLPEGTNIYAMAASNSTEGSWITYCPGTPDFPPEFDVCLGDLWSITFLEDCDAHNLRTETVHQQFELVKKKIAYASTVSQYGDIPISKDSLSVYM
VyPAL2 was expressed using sf9 insect cells as described previously (Hemu et al. PNAS, 2019, 116, 11737-11746). 100 mL of the viral vector containing VyPAL2 gene was used to infect sf9 cells at cell density of 2.5×10^6 cells/mL. MOI for infection was set between 1-10 for protein expression. The culture was incubated at 27° C. shaker for 3 days (72 hours) at 135 rpm. Protein purification was performed in three steps: Immobilized Metal Affinity Chromatography (IMAC), Ion-Exchange Chromatography (IEX), and Size-Exclusion chromatography (SEC). Pro-VyPAL2 was activated at pH 5 in 50 mM sodium citrate buffer (0.1 M NaCl, 1 mM DTT, 0.5 mM LS) for 2-3 h at 37° C. After activation, the activated enzyme was purified by SEC at pH 6.5 (20 mM PBS, 0.1 M NaCl, 1 mM DTT).

The test system of series [3] is butelase-1. Nature of the series: Inhibitory activity assay of AN(Me)12-HV 7 on butelase-1 cyclization of pB1 peptide. The class given is biochemical, Clitoria ternatea. As to conditions: 200 μM pB1, 0.001 eq butelase-1, pH 6.5, 37° C., 10 min; increasing concentration of peptide 7. Here is the method: FIG. 7. Inhibitory activity assay of AN(Me)12-HV 7. (a) RP-HPLC trace for cyclization of pB1 peptide ([…]; SEQ ID NO:13). The cyclization reaction was performed at 37° C. in the present of 200 μM of peptide substrates and 0.001 eq of butelase-1 in 20 mM PBS (pH 6.5) for 10 min. The reactions were monitored by RP-HPLC. The cyclic peptide is labelled as c[pB1] and starred HPLC peak is the potentially inhibitory peptide AN(Me)12-HV 7. […] (b) MALDI profiles of pB1 and AN(Me)12-HV 7 before and after treatment with butelase-1.
butelase-1, sequence (as listed by the source): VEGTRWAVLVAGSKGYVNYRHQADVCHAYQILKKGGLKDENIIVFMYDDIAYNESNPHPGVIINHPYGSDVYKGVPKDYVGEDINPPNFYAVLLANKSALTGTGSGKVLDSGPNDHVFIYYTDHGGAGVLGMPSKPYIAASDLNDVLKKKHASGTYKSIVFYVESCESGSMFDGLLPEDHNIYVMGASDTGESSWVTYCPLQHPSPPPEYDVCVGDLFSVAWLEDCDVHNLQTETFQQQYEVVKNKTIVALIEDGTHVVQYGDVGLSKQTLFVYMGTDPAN
as §1

For series [4] the following is noted: enzyme bond, 37.0 °C.
Setting [5] is: the molecule shown is the open-chain precursor, 102-membered ring, butelase-1 (0.01 eq), 20 mM PBS pH 6.5, 0.4 mM.

Entries after “also recorded” stand apart in the source; their conditions may differ. Read-outs that look alike come from different tables or passages of the source. Starred links: 1 amine or outer side, 2 acyl side, 3 side chain; linkers in the order of their positions; H or OH if unused. Positions of bridges follow the written chain, without caps; N, C: chain ends. Non-standard residues stand in square brackets, D forms with d. Residues, ends and D or L forms follow the SMILES beside them. No end group written: not given here. *: point of attachment. N(OH) = N-hydroxy-L-asparagine, O=C(C[C@H](N[*:1])C(=O)[*:2])NO; NHOH = ON*

Take `CC[C@H](C)[C@H](N)C(=O)N[C@@H](CO)C(=O)N[C@@H](Cc1ccc(O)cc1)C(=O)NCC(=O)N[C@@H](CC(N)=O)C(=O)N[C@@H](CC(=O)NO)C(=O)N[C@@H](C)C(=O)N[C@@H](CC(C)C)C(=O)N[C@@H](CCSC)C(=O)N1CCC[C@H]1C(N)=O` [Peptide 9, ISYGNN(OH)ALMP] (H-ISYGND(NHOH)ALMP-NH2): the “improvement of MMP2 inhibitory activity over APP-IP 8” value on MMP2 (replacement of Asp by Asn(OH)) is given as 2.6 fold.

On to `CC[C@H](C)[C@@H]1NC(=O)[C@H](CO)NC(=O)CNC(=O)[C@@H]2CCCN2C(=O)[C@H](CCSC)NC(=O)[C@H](CC(C)C)NC(=O)[C@H](C)NC(=O)[C@H](CC(=O)NO)NC(=O)[C@H](CCC(N)=O)NC(=O)CNC(=O)[C@H](Cc2ccc(O)cc2)NC(=O)[C@H](CO)NC1=O` [Peptide 11, cyclo[SISYGQN(OH)ALMPG]] (cyclo(ALMPGSISYGQD(NHOH))), for which the IC50 at MMP2 (APP-IP-derived peptides, 0.8 nM MMP2, 10 μM substrate, pH 7.5, 37° C., read-out: IC50 towards MMP2) is above 100 µM. For the same compound, the Ki on MMP2 (APP-IP-derived peptides, Ki=IC50/(1+[S]o/Km), read-out: Ki towards MMP2) is above 100 µM.

For `CC[C@H](C)[C@@H]1NC(=O)[C@@H]2CSSC[C@H](NC(=O)[C@H](CC(=O)NO)NC(=O)[C@@H]3CSSC[C@H](NC1=O)C(=O)N[C@@H]([C@@H](C)O)C(=O)N[C@@H]([C@@H](C)CC)C(=O)N[C@@H](CO)C(=O)N[C@@H](Cc1ccc(O)cc1)C(=O)N3)C(=O)N[C@@H](CC(C)C)C(=O)N[C@H]1CSSC[C@H](NC(=O)[C@H](C(C)C)NC(=O)CNC(=O)[C@H](CCCNC(=N)N)NC(=O)[C@H](CCCNC(=N)N)NC1=O)C(=O)N[C@@H](CCCNC(=N)N)C(=O)N2` [Peptide 17] (cyclo(CD(NHOH)CLCRRGVCRCICTISY); disulfide 1-14, 3-12, 5-10 (inferred); ring closure inferred), at MMP2, the Ki stood at 0.0028 µM, the “better MMP2 binding affinity than Asn-RTD-1 19” value is 13 fold, the “better MMP2 binding affinity than Asp-RTD-1 18” value stood at 2.3 fold and the “improvement of MMP2 Ki over linear Asn(OH)-APP-IP peptide 9” value is on record as 8.2 fold. Also, on MMP2 (MMP2 over MMP9), the “more potent towards MMP2 than MMP9 (selectivity)” value is “about 1000 fold”. Also, the “stability in human serum” value in series [1] (after 16 h) is “remained intact”.

For the compound AIYRRGRLYRRDHV [Peptide 3], in the series on butelase-1 [2], the Kcat was 0.454 ± 0.02 s⁻¹ and the Km came out at 630 ± 19.5 µM.

With AIYRRGRLYRRDSL [Peptide 6], in the series on VyPAL2, the Kcat is 0.581 ± 0.09 s⁻¹ and the Michaelis-Menten constant (Km) amounted to 2070 ± 407 µM.

With AIYRRGRLYRRN(Me) HV [Peptide 7], the “recognition by butelase-1 as substrate for cyclization” value with butelase-1 [2] was “not recognized”. Further, in the series with butelase-1 [3], the “inhibition of butelase-1 cyclization of pB1 peptide” value is listed as “nor did it inhibit the cyclization; also recorded: didn't affect the cyclization rate of pB1”.

Take “AIYRRGRLYRRN(OH)HV (AIYRRGRLYRR[N(OH)]HV-NH2) [Peptide 2]”: in the series with butelase-1 [2], the “catalytic efficiency of butelase-1, fold higher than DHV peptide 3” value is 48 fold; the “catalytic efficiency of butelase-1, fold lower than NHV peptide 1” value was around 6 fold; the Kcat was 3.46 ± 0.27 s⁻¹; the Km came out at 98.8 ± 17.8 µM.

As to “AIYRRGRLYRRN(OH)SL (AIYRRGRLYRR[N(OH)]SL-NH2) [Peptide 5]”, in the series on VyPAL2, the “catalytic efficiency of VyPAL2, fold higher than DSL peptide 6” value was found to be 28 fold; the “catalytic efficiency of VyPAL2, fold lower than NSL peptide 4” value is recorded as around 14 fold; the Kcat is 0.942 ± 0.082 s⁻¹; the Km worked out at 120 ± 19.2 µM.

As to AIYRRGRLYRRNHV [Peptide 1], in the series with butelase-1 [2], the Kcat is 14.86 ± 0.34 s⁻¹ and the Km worked out at 67.5 ± 2.8 µM.

For the compound AIYRRGRLYRRNSL [Peptide 4], in the series with VyPAL2, the Kcat worked out at 4.56 ± 0.24 s⁻¹ and the Km was determined as 42.5 ± 8.83 µM.

“H-Gly-Arg-Cys-Thr-Lys-Ser-Ile-Pro-Pro-Ile-Cys-Phe-Pro-Asp-Ile-Val-NH2?” had a ring closure, conversion in series [4] (the molecule shown is the open-chain precursor, 42-membered ring, butelase-1 (0.01 eq), 20 mM PBS pH 6.5, 0.4 mM) of 0%.

On to “H-Gly-Gly-Val-Cys-Pro-Lys-Ile-Leu-Lys-Lys-Cys-Arg-Arg-Asp-Ser-Asp-Cys-Pro-Gly-Ala-Cys-Ile-Cys-Arg-Gly-Asn-Gly-Tyr-Cys-Gly-Ser-Gly-Ser-Asn(OH)-Ile-Val-NH2?”, for which, in series [4] (setting [5]), the ring closure, conversion worked out at 95%.

In turn, “H-Gly-Gly-Val-Cys-Pro-Lys-Ile-Leu-Lys-Lys-Cys-Arg-Arg-Asp-Ser-Asp-Cys-Pro-Gly-Ala-Cys-Ile-Cys-Arg-Gly-Asn-Gly-Tyr-Cys-Gly-Ser-Gly-Ser-Asp-Ile-Val-NH2?” had a ring closure, conversion in series [4] (setting [5]) of 0%.

With “H-Gly-Leu-Pro-Val-Cys-Gly-Glu-Thr-Cys-Phe-Gly-Gly-Thr-Cys-Asn-Thr-Pro-Gly-Cys-Ser-Cys-Thr-Trp-Pro-Ile-Cys-Thr-Arg-Asp-Ile-Val-NH2?”, the ring closure, conversion in series [4] (the molecule shown is the open-chain precursor, 87-membered ring, butelase-1 (0.01 eq), 20 mM PBS pH 6.5, 0.4 mM) amounted to 0%.

For “ISYGNDALMP-NH2 [Peptide 8, reference compound]”, the Ki at MMP2 was 0.06 µM. Moreover, the metabolised at 32 min, 100 μM in series [1] (in 32 min, read-out: degradation in human serum) is above 50%.

Turning to c[FLaRGN(OH)FLaRGN(OH)], the ring closure, conversion in series [4] (36-membered ring, butelase-1 (0.01 eq), 20 mM PBS pH 6.5, 0.4 mM) was 90%.

With cyclo[SYCN(OH)CLCRRGVCRCICTI], the ring closure, conversion in series [4] (54-membered ring, butelase-1 (0.04 eq), PBS pH 6.5, 0.1 mM) is 60%.

As a reminder, the IC50 is the point on the concentration scale where inhibition reaches its midpoint. The Km is the substrate concentration at which the rate is half of its maximum.

The values above are taken from patent US12655458B2, “Methods for cyclization of (poly)peptides comprising nγ-hydroxy- or Nγ-amino-L-asparagine” (priority 2021, dated 2026).
